# Results published in US7951549B2, “Methods for the identification of agents that inhibit mesenchymal-like tumor cells or their formation” (OSI Pharmaceuticals, Inc., priority 2008, dated 2011).
# Entries after “also recorded” stand apart in the source; their conditions may differ.
# Experiments:
# Assay type in all cases: cell-based, human
# H358 cells [1] = test: Ligand-induced EMT in H358 cells with pharmacological inhibitors (Western blot markers, morphology); settings: inhibitor and ligand for 7 days; for EMT in OSM-induced models (markers and morphology): OSM alone or in combination
# Experimental: EMD Biosciences #444937), JAK inhibitor 1 (“JAKi”; EMD Biosciences #420099), and LY294002 (PI3K inhibitor (PI3Ki); EMD Biosciences #440202) were used in the concentrations indicated. Cells were treated with inhibitor 30 minutes prior to ligand stimulation. Medium, inhibitor and ligand were refreshed on experimental day 3 to 4. Cell lines were treated as indicated in the text and figure legends. Cell lysates were prepared in RIPA buffer (Sigma, #R0278) containing protease (Sigma #P8340) and phosphatase (Sigma, #P5726) inhibitors. Protein concentration was determined by micro-BCA assay (Pierce, #23227). Protein immunodetection was performed by electrophoretic transfer of SDS-PAGE separated proteins to nitrocellulose, incubation with antibody and chemiluminescent second step detection (PicoWest; Pierce, #34078). The antibodies used were: E-cadherin (sc21791), N-cadherin (#7939), ErbB3 (sc285), GAPDH (#25778) and Zeb1 (#25388), all from Santa Cruz Biotechnology; vimentin (BD550513) and fibronectin (BD610077; both from BD Biosciences); β-actin (Sigma, #A5441).
# H358 cells [2] = test: TGFβ-induced EMT of H358 cells in 3D matrigel culture, with and without inhibitor; settings: 10 μM SB431542, ligand TGFβ
# Experimental: 3-Dimensional matrigel culture: Tissue culture wells were coated with a layer of matrigel of 1 mm depth or greater. H358 cells were plated on top of this in 2% matrigel with seeding density of 2,500-5000 cells/cm^2. Once the cell/matrigel layer had solidified, media was added and cultures were allowed to incubate overnight at 37° C. in a CO2 incubator before treatment of cells with ligand with and without addition of 10 μM SB431542 (Sigma-Aldrich, St. Louis, Mo.; product #S4317). Culture media, ligand with and without addition of 10 μM SB431542 was replenished every 3-4 days during the duration of the experiment.
# Cells were plated on coverslips on experimental day 0, stimulated with ligand on day 1 and refreshed with medium and ligand on day 3-4. On day 7, cells were fixed at room temperature for 10 minutes in 4% paraformaldehyde (EMS #15701)/PBS (Gibco #14190). Cells were blocked in 3% BSA/PBS and incubated with primary antibody (E-cadherin, Santa Cruz #sc21791 and Vimentin, Chemicon #AB5733) diluted in blocking buffer for two hours at room temperature. Cells were washed and incubated in secondary antibody (Invitrogen #A11029 and Chemicon #AP194R) followed by nuclear counterstain TO-PRO3 (Invitrogen #T3605). Coverslips were mounted on slides with Pro-Long Gold anti-fade reagent (Invitrogen P36934). […]
# H358 cells [3] = test: Induction of EMT in H358 cells by growth factors and cytokines (immunoblot of EMT biomarkers); settings: for induction of EMT in H358 cells: single ligand, 7 days
# Experimental: The human line H358 was cultured in the appropriate ATCC recommended supplemented media. Growth factor and cytokine induced EMT was monitored over a 7-14 day period. Growth factors and cytokines were obtained from commercial sources and included TGFβ 10 ng/ml, Endothelin 100 nM, IL-4 5 ng/ml, IL-6 5 ng/ml, IL-8 5 ng/ml, VEGF 10 ng/ml, Stromal derived factor, 100 ng/ml, Epidermal derived factor 10 ng/ml, MMP2, 100 ng/ml, MMP7, 100 ng/ml, MMP9, 100 ng/ml, Collagen-I, 5 μg/cm2, Collagen-IV, 5 μg/cm2, Fibronectin, 1 μg/cm2, Laminin-I, 1 μg/cm2, Vitronectin, 0.1 μg/cm2, Polylysine, 100 mg/mL, HGF, 100 ng/mL, MSP, 100 ng/ml, IGF-1, 50 ng/mL, CSF-1, 100 ng/mL, ET1, 100 nM, SDF-1alpha, 100 ng/ml PGE2, 500 nM, LPA, 10 μM, S1P, 1 μM, TGFbeta1, 2.5 ng/mL, TNFalpha, 25 ng/mL, IL1beta, 2.5 ng/mL, IL6, 2 ng/mL, IL8, 0.5 ng/mL, WNT-1, 5 ng/mL, CTGF, 20 ng/ml, Trance, 50 ng/ml, FGF1, 10 ng/ml, FGF2, 10 ng/ml, BMP4, 100 ng/ml, BMP7, 100 ng/ml, IGF2, 100 ng/ml, Oncostatin M, 100 ng/ml, NRG1, 50 ng/ml, PDGF-AA, 50 ng/ml, PDGF-BB, 30 ng/ml, WISP1, 20 ng/ml, Fulvestrant, 1 μM, LIF, 20 ng/ml, IFN g, 50 ng/ml, HMG-B1, 50 ng/ml, M-CSF, 50 ng/ml, PTHrP, 50 ng/ml, MCP1, 50 ng/ml, IL-1a, 10 ng/ml, IL-33, 50 ng/ml, IL-31, 50 ng/ml, GM-CSF, 25 ng/ml, Angiopoeitin 2, 400 ng/ml, PAR1, 100 μM, PAR2, 100 μM, PAR4, 100 μM, Wnt5a, 200 ng/ml, G-CSF, 50 ng/ml, Amphiregulin, 100 ng/ml, CNTF, 25 ng/mL, Pleiotrophin, 25 ng/ml, Prolactin, 100 ng/ml, TRAIL, 100 ng/ml.
# Cell lines were treated as indicated in the text and figure legends. Cell lysates were prepared in RIPA buffer (Sigma, #R0278) containing protease (Sigma #P8340) and phosphatase (Sigma, #P5726) inhibitors. Protein concentration was determined by micro-BCA assay (Pierce, #23227). Protein immunodetection was performed by electrophoretic transfer of SDS-PAGE separated proteins to nitrocellulose, incubation with antibody and chemiluminescent second step detection (PicoWest; Pierce, #34078). The antibodies used were: E-cadherin (sc21791), N-cadherin (#7939), ErbB3 (sc285), GAPDH (#25778) and Zeb1 (#25388), all from Santa Cruz Biotechnology; vimentin (BD550513) and fibronectin (BD610077; both from BD Biosciences); β-actin (Sigma, #A5441).
# H358 cells [4] = test: Immunofluorescence and confocal imaging of E-cadherin and vimentin in ligand-treated H358 cells; settings: cells treated for 7 days
# Experimental: Cells were plated on coverslips on experimental day 0, stimulated with ligand on day 1 and refreshed with medium and ligand on day 3-4. On day 7, cells were fixed at room temperature for 10 minutes in 4% paraformaldehyde (EMS #15701)/PBS (Gibco #14190). Cells were blocked in 3% BSA/PBS and incubated with primary antibody (E-cadherin, Santa Cruz #sc21791 and Vimentin, Chemicon #AB5733) diluted in blocking buffer for two hours at room temperature. Cells were washed and incubated in secondary antibody (Invitrogen #A11029 and Chemicon #AP194R) followed by nuclear counterstain TO-PRO3 (Invitrogen #T3605). Coverslips were mounted on slides with Pro-Long Gold anti-fade reagent (Invitrogen P36934). Images were captured on a Leica DMRXE microcope with SP2 scanner using Leica Confocal Software.
compound,measurement,setting,value
CC(C)(C)c1nc2c3cc[nH]c(=O)c3c3cc(F)ccc3c2[nH]1 [JAK inhibitor],EMT in OSM-induced models (markers and morphology),H358 cells [1],blocked
same,EMT in OSM-induced models (markers and morphology),H358 cells [1]; listed as JAKi,blocks
same,"downregulation of E-cadherin induced by OSM, TGFβ, HGF+OSM and TGFβ+OSM",H358 cells [1]; Western blot,blocked
same,"upregulation of vimentin by OSM, HGF+OSM and TGFβ+OSM",H358 cells [1]; Western blot,attenuated
NC(=O)c1ccc(-c2nc(-c3ccc4c(c3)OCO4)c(-c3ccccn3)[nH]2)cc1 [SB431542],"epithelial to mesenchymal transition induced by TGFβ (vimentin, E-cadherin)",H358 cells [2],abrogated; also recorded: inhibited
"EGF: epidermal growth factor, protein ligand",induction of EMT in H358 cells,H358 cells [3],to a lesser extent
HGF: hepatocyte growth factor (Peprotech #100-39),extent of EMT at the single cell level (E-cadherin and vimentin expression and localization),H358 cells [4],partial EMT
same,E-cadherin repression or vimentin induction as single agents,H358 cells [3]; seven day treatment of H358,neither HGF or OSM as single agents produced significant
TGFβ,extent of EMT at the single cell level (E-cadherin and vimentin expression and localization),H358 cells [4],more complete EMT
same,E-cadherin expression,H358 cells [3]; seven day treatment of H358,marked decrease
same,vimentin expression,H358 cells [3]; seven day treatment of H358,robust increase
same,E-cadherin expression,"H358 cells [3]; seven day treatment of H358, listed as TGF-beta",very substantial
same,induction of EMT in H358 cells,H358 cells [3],most complete EMT
TNFα,induction of EMT in H358 cells,H358 cells [3],able to induce EMT
